Measured values reported in patent US20170107257A1, “CYCLIC APELIN ANALOGS” (LANTHIOPEP B.V., priority 2014, published 2017).
Read-outs that look alike come from different tables or passages of the source. Numbered stars: 1 amine (or outer) side, 2 acyl side, 3 side chain; on linkers, the order of the positions; unused ones are H or OH. Bridge positions count the residues as written; N and C are the ends. Square brackets hold non-standard residues; d marks the D form. Peptide text beside a SMILES is read from it. ξ: configuration not given here. ξAbu(3ξ-yl) = CC(C(N[*:1])C(=O)[*:2])[*:3]; pGlu = O=C1CC[C@@H](C(=O)O)N1; ξC = NC(CS)C(=O)O

What was measured:
[1] = Stability of apelin analogs in rat plasma; format: in vitro ADME
Experimental: Stability of apelin analogs in rat plasma. […] Samples were quenched by acidifying to final concentration of 5% TFA. Samples were analyzed on HPLC. Peak heights were plotted as relative to the initial peak heights.

hAPJ [2] = target: T1, hAPJ (Homo sapiens, UniProt P35414); assay: hAPJ β-arrestin recruitment assay (PathHunter, CHO-K1); format: cell-based; conditions: for EC50: 90 min incubation at 37° C., read-out: Relative EC50, Arrestin recruitment
T1 construct: host or cells: CHO-K1
T1 sequence (P32121 whole entry partner, one chain of several): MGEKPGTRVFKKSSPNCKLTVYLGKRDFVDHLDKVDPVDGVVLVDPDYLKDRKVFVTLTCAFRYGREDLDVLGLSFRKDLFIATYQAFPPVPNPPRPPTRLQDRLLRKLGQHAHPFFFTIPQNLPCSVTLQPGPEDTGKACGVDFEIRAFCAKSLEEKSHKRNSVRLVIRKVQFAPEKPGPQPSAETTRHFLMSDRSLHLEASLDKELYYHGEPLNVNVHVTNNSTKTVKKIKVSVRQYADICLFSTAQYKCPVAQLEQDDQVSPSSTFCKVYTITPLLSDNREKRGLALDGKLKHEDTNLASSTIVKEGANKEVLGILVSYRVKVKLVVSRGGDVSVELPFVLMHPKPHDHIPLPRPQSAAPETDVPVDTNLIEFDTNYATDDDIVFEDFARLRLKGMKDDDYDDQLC
Experimental: Stimulation of hAPJ interaction with 6-arrestin is studied using the PathHunter™ system from DiscoveRx. CHO-K1 cell line was engineered to co-express the ProLink/Enzyme donor (PK)-tagged APJ and the enzyme activator (EA)-tagged 6-arrestin fusion proteins. Upon GPCR activation, enzyme fragment complementation occurs, to produce an active β-Gal enzyme. These cells are seeded at a density of 15000 cells/well. […] Following 90 min incubation at 37° C. with the compounds, cells are lysed and incubated with PathHunter reagent for 1 hour at room temperature. Samples are then read with an ultrasensitive luminescence protocol using an Envision instrument (Perkin Elmer).

hAPJ [3] = target: T2, hAPJ (Homo sapiens, UniProt P35414); assay: hAPJ receptor internalization assay (APJ-GFP translocation, HEK293); format: cell-based; set-up: expressed in transfected cells; host or cells: HEK293, adenoviral transduction (Ad-GFP-hAPJ); conditions: 500 nM max, read-out: Relative EC50 (nM), hAPJ internalisation
T2 sequence (P35414 1-380): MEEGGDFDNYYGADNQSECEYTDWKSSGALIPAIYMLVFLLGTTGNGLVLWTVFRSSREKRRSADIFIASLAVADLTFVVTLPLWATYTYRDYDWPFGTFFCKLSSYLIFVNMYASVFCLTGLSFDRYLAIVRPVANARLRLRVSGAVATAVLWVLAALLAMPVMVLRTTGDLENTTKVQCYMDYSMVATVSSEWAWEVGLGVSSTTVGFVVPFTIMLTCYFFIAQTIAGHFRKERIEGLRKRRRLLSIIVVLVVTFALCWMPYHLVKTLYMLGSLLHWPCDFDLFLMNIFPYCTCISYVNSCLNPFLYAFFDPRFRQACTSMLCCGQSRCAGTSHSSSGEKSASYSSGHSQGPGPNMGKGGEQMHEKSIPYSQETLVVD
Experimental: HEK293 cells are seeded 24 hours prior to experiment at 50% confluence in 2×F75 flasks. The next morning, cells are trypsinized, vortexed for 60 seconds and passed through a 40 micron mesh filter. Cells are resuspended at a density of 300,000 cells/ml in OptiMEM+2% FBS, and Ad-GFP-hAPJ virus is added at an MOI of 1 PFU/cell. Cells are vortexed and dispensed into 96 well clear bottom, black dishes at a concentration of 10,000 cells/well. Cells are maintained at room temperature for 30 minutes to allow cell attachment to the dish prior to Incubation overnight at 37° C. in a 5% CO2 incubator. Next morning, apelin analogs are added in a concentration response curve (500 nM max). APJ-GFP translocation is observed and documented on Olympus FV con-focal microscope.

[4] = target: T3, HEK293 cells expressing recombinant APJ receptors (Homo sapiens, UniProt P35414); assay: Forskolin-stimulated cAMP assay (HTRF); format: cell-based; conditions: 10 μM forskolin, 0.5 mM IBMX, 40 min; read-out: Relative EC50 (nM), cAMP
T3 construct: expressed in transfected cells; host or cells: HEK293
T3 sequence (P35414 1-380): T2 sequence (P35414 1-380)
Experimental: Cyclic AMP level in HEK293 cells expressing recombinant APJ receptors is assayed by an HTRF competitive immunoassay. Cells at a density of 4000 cells/well are resuspended in assay buffer (HBSS containing Ca^2+ and Mg^2+ supplemented with 0.1% BSA and 5 mM HEPES) and added to the assay plate. Incubation for 40 min at room temperature is started with the addition of increasing concentrations of the compounds containing 10 μM forskolin and 0.5 mM IBMX. Reaction is stopped by addition of lysis buffer including d2-labeled cAMP, followed by addition of cryptate-labeled anti-cAMP monoclonal antibody, according to the manufacturer instructions. Time-resolved fluorescence at 620 and 665 nm is measured in an Envision instrument after 2 hour incubation at room temperature in the dark. cAMP content in the samples is determined by interpolation in a cAMP standard curve.

hAPJ [5] = target: T2, hAPJ; assay: cAMP assay (DiscoverX); format: cell-based
Experimental: (§1) (Me)lan apelin variants were tested with cAMP and beta arrestin assays from the company DiscoverX.

hAPJ [6] = target: T2, hAPJ; assay: beta arrestin assay (DiscoverX); format: cell-based; conditions: for Ratio β-arrestin/cAMP: ratio of β-arrestin EC50 to cAMP EC50; for EC50: read-out: β-arrestin EC50
Experimental: as §1

hAPJ [7] = target: T2, hAPJ; assay: APJ competition binding assay ([125I]-Apelin 13, SPA, HEK293 membranes); set-up: expressed in transfected cells; host or cells: HEK293, adenoviral transduction (Ad-GFP-hAPJ); conditions: competition with 0.06 nM [Glp65,Nle75,Tyr77][125I]-Apelin 13; read-out: Relative IC50, hAPJ BINDING
Experimental: [Glp^65, Nle^75, Tyr^77][^125I]-Apelin 13 binding experiments are carried out in SPA 96-well format. Membranes used in this assay are prepared from HEK293 cells stably expressing either recombinant hAPJ or rAPJ. The incubation is initiated by the addition of a mixture of WGA PVT SPA beads (0.5 mg/well) and 0.08 μg of membranes to an assay buffer (25 mM HEPES, 10 mM MgCl2, 1 mM CaCl2, 0.1% BSA, pH7.4) containing 0.06 nM [Glp^65, Nle^75, Tyr^77][^125I]-Apelin 13 and increasing concentrations of the tested compound (10 point concentration response curves). Non-specific binding is determined in the presence of 100 nM apelin 17. Samples are incubated during eight hours at room temperature (22° C.). Then, 96-well plates are read in a Microbeta Trilux.

[8] = system: human immunodeficiency virus; conditions: cited from earlier work

half-life at 0.1 mg/ml ([1]; rat, plasma, pH 7.4) [h]	activity in arrestin recruitment assay (hAPJ [2])	EC50 (hAPJ [2]) [µM]	EC50 (hAPJ [3]) [nM]	EC50 [4] [nM]	EC50 (hAPJ [5]) [µM]	Ratio β-arrestin/cAMP (hAPJ [6])	EC50 (hAPJ [6]) [µM]	IC50 (hAPJ [7]) [µM]	SMILES	half-life at 0.1 mg/ml ([1]; 10% rat plasma, pH 7.4, 37° C., 0.1 mg/ml, read-out: T50 stability in rat plasma (converted)) [h]	blocking of HIV entry into cells [8]
9	significant activity	0.0141	1.25	29.3	0.007	9	0.067	0.115	CSCC[C@H](NC(=O)[C@@H]1CCCN1C(=O)C1CSC(C)C(NC(=O)[C@H](CC(C)C)NC(=O)[C@H](CCCNC(=N)N)NC(=O)[C@@H]2CCCN2C(=O)[C@H](CCCNC(=N)N)NC(=O)[C@@H]2CCC(=O)N2)C(=O)N[C@@H](Cc2c[nH]cn2)C(=O)N[C@@H](CCCCN)C(=O)N1)C(=O)N1CCC[C@H]1C(=O)N[C@@H](Cc1ccccc1)C(=O)O (stereo partly shown) [pEApeM5, pERPRLmelanHKmelanPMPF] ([pGlu]RPRL[ξAbu(3ξ-yl)]HK[ξC]PMPF-OH; thioether 6-9; C-terminus assumed)		
24		> 0.3	> 1000	> 300	0.125	>8	> 1	> 1	CSCC[C@H](NC(=O)C1CSC(C)C(NC(=O)[C@H](CC(C)C)NC(=O)[C@H](CCCNC(=N)N)NC(=O)[C@@H]2CCCN2C(=O)[C@H](CCCNC(=N)N)NC(=O)[C@@H]2CCC(=O)N2)C(=O)N[C@@H](Cc2c[nH]cn2)C(=O)N[C@@H](CCCCN)C(=O)NCC(=O)N1)C(=O)N1CCC[C@H]1C(=O)N[C@@H](Cc1ccccc1)C(=O)O (stereo partly shown) [pEApeM8, pERPRLmeLanHKGmeLanMPF] ([pGlu]RPRL[ξAbu(3ξ-yl)]HKG[ξC]MPF-OH; thioether 6-10; C-terminus assumed)		
									CSCC[C@H](NC(=O)[C@@H]1CCCN1C(=O)CNC(=O)[C@H](CCCCN)NC(=O)[C@H](Cc1c[nH]cn1)NC(=O)[C@H](CO)NC(=O)[C@H](CC(C)C)NC(=O)[C@H](CCCNC(=N)N)NC(=O)[C@@H]1CCCN1C(=O)[C@H](CCCNC(=N)N)NC(=O)[C@@H](N)CCC(N)=O)C(=O)N1CCC[C@H]1C(=O)N[C@@H](Cc1ccccc1)C(=O)O [reference compound]	1	poorly blocks
